From US4347254A, “Tricyclic cage compounds, their synthesis and use as antiviral agents” (Sumitomo Chemical Company, Limited, priority 1978, dated 1982)
Where “and” joins values, the source holds several entries; their conditions need not be identical. Equal entries are not always repeated. Where two headings read alike, the source gives them in different places.

Tests used:
[1] = Acute toxicity: mortality after subcutaneous injection; format: in vivo, male dd-strain mice; design: key to appearance of hyperactivity / clonic convulsion: ±: appearance of hyperactivity; +: appearance of clonic convulsion; conditions: mice
Protocol: Six male dd-strain mice, weighing 25±3 g, were used in each group. Test drugs were injected subcutaneously (0.2 ml/10 g).
Mortality at the 3rd day after subcutaneous injection:-
^(*1) Number of deaths/Number of animals used.

[2] = system: catalepsy induced by haloperidol; assay: Effects on the catalepsy induced by haloperidol (anti-catalepsy activity); format: in vivo, male dd-strain mice; conditions: for Number of showing anti-catalepty activity/Number of total animal: 0.5 hour after test drug, haloperidol 7 mg/kg s.c., hydrochloride
Protocol: Pharmcol., 22, 546-547 (1970)" or "J. May et al., Psychopharmcol., 24, 296-307 (1972)".
Effects on the catalepsy induced by haloperidol:
Six male dd-strain mice, weighing 25±3 g, were used in each group. Test drugs were injected intraperitoneally or subcutaneously 3.5 hours after the injection of haloperidol (7 mg/kg, s.c.).
The catalepsy was measured at 0.5 hour after injection of test drugs according to the method of Wirth et al. with slight modification [cf. Wirth, R., Gosswald, R., Horlein, V., Risse, K. H. and Kreiskott, H. Archs int. Pharmacodyn., Ther., 115, 1-31 (1958)].

[3] = system: Influenza A/PR/8/34 (HO,Nl) strain; assay: microbe, parasite or virus in culture; format: cell-based, Influenza A virus; conditions: for minimal effective concentration: Influenza A virus, PR/8, 72 h, 34° C., 3 days, read-out: MEC (minimum effective concentration); for Chemotherapeutic index (MCC/MEC): 4320 min
[4] = Cytotoxicity in host cells by microscopic examination and retardation of cell growth rate; format: cell-based; conditions: dog; MDCK cells; hydrochloride; read-out: MCC (minimum cytotoxic concentration)
Protocol: Virus (Influenza A/PR/8/34 (HO,Nl) strain) and cell culture (MDCK cells) were used in this study and were grown in Earle-based Eagle-MEM containing 2.5 mg/ml of NaHCO3 and 10% fetal calf serum. Maintenance medium was Eagle's MEM containing 2.5 mg/ml NaHCO3, 0.1% bovine serum albumin and 20 μg/ml Tnypsin.
After washing MDCK Cell monolayers with PBS(-), maintenance medium containing 10^3 TCID50 of virus the drug was added to each culture tube and these tubes were then incubated at 34° C. for 3 days.
Antiviral effects and cytotoxicities of the test compounds were tested against influenza virus by the tube dilution assay.
Cytotoxicity was determined by microscopic examination and retardation of cell growth rate of host cell, and represented by minimum cytotoxicic concentration (MCC, μg/ml).

[5] = system: Influenza A/PR/8/34 (HO,Nl) strain; format: in vivo, Influenza A virus; ICR male mice; conditions: for LLS (lung lesion score): score 0-5, control 4.7; for efficacy compared with amantadine: as indicated in Table III
[6] = system: central nervous system (CNS); conditions: known drug; cited from earlier work
[7] = 1000 mg/kg s.c., hydrochloride (29-1: not hydrochloride)
[8] = hydrochloride (29-1: not hydrochloride)

Compound | minimal effective concentration ([3]; MDCK cells, hydrochloride) | Chemotherapeutic index (MCC/MEC) ([3]; MDCK cells, hydrochloride) | MCC at 72 h [4] | Number of showing anti-catalepty activity/Number of total animal ([2]; 500 mg/kg s.c.) | other results
CC(N)C12COC3CC(CCC31)C2 (stereo not drawn) [Compound No. 44-1, 5-oxa-3-(α-aminoethyl)-isotwistane] | 25 µg/mL | 2 | 50 µg/mL |  | appearance of hyperactivity / clonic convulsion ([1]; 1000 mg/kg s.c., hydrochloride): ±; Mortality rate at the 3rd day after subcutaneous injection (Number of deaths/Number of animals used) [1, 7]: 0/6; Number of showing anti-catalepty activity/Number of total animal ([2]; 250 mg/kg s.c.): 1/6
NCC12CSC3CC(CCC31)C2 (stereo not drawn) [Compound No. 53-1] | 12.5 µg/mL | 2 | 25 µg/mL |  | Mortality rate at the 3rd day after subcutaneous injection (Number of deaths/Number of animals used) ([1]; 500 mg/kg s.c., hydrochloride): 3/6
CN(C)CC12COC3CC(CCC31)C2 (stereo not drawn) [Compound No. 41-5, 5-Oxa-3-N,N-dimethylaminomethyl-isotwistane] | 50 µg/mL | 2 | 100 µg/mL |  | 
NC12CC3CC(CC(C3)C1)C2 [Amantadine, reference compound] | 12.5 µg/mL |  | 12.5 µg/mL |  | Mortality rate at the 3rd day after subcutaneous injection (Number of deaths/Number of animals used) ([1]; 300 mg/kg s.c., hydrochloride): 6/6; Number of showing anti-catalepty activity/Number of total animal ([2]; 50 mg/kg s.c.): 3/6 and 2/6; antagonism of the catalepsy (in words), amantadine ([2]; at 50 mg/kg): antagonizes the catalepsy at 50 mg/kg; LLS (lung lesion score) ([5]; hydrochloride): 4.3; Chemotherapeutic index (MCC/MEC) ([3]; mdck): 1; CNS-effects (in words), amantadine [6]: strong effects on a central nervous system (CNS)
COC(=O)C12COC3CC(CC31)C2 (stereo not drawn) [Compound No. 29-1, 5-oxa-3-methoxycarbonyl-brendane] |  |  |  |  | Mortality rate at the 3rd day after subcutaneous injection (Number of deaths/Number of animals used) [1, 7]: 0/6; LLS (lung lesion score) [5, 8]: 4.3; efficacy compared with amantadine [5]: comparable to that of amantadine
N[C@@H]1[C@H]2CC[C@H]3[C@@H]1CO[C@H]3C2 (relative stereo) [Compound No. 12-4, 5-Oxa-endo-2-amino-isotwistane] | 50 µg/mL | 2 | 100 µg/mL | 0/6 | Mortality rate at the 3rd day after subcutaneous injection (Number of deaths/Number of animals used) ([1]; 2000 mg/kg s.c., hydrochloride): 0/6; appearance of hyperactivity / clonic convulsion ([1]; 2000 mg/kg s.c., hydrochloride): ±
NCCCC12COC3CC(CCC31)C2 (stereo not drawn) [Compound No. 27-4, 5-Oxa-3-(ω-amino-n-propyl)-isotwistane] | 25 µg/mL | 4 | 100 µg/mL |  | Mortality rate at the 3rd day after subcutaneous injection (Number of deaths/Number of animals used) ([1]; 250 mg/kg s.c., hydrochloride): 1/6; Mortality rate at the 3rd day after subcutaneous injection (Number of deaths/Number of animals used) ([1]; 500 mg/kg s.c., hydrochloride): 6/6
CN[C@@H]1[C@H]2CC[C@H]3[C@@H]1CO[C@H]3C2 (relative stereo) [Compound No. 18-3, 5-Oxa-endo-2-N-methylamino-isotwistane] | 50 µg/mL | > 4 | > 200 µg/mL | 1/6 | appearance of hyperactivity / clonic convulsion ([1]; 1000 mg/kg s.c., hydrochloride): ±; Mortality rate at the 3rd day after subcutaneous injection (Number of deaths/Number of animals used) [1, 7]: 0/6
NCC1C2CCC3C(COC13)C2 (stereo not drawn) [Compound No. 12-10] | 25 µg/mL | 4 | 100 µg/mL |  | 
CNC12COC3CC(CCC31)C2 (stereo not drawn) [Compound No. 18-2, 5-Oxa-3-N-methylamino-isotwistane] | 50 µg/mL | > 4 | > 200 µg/mL |  | Mortality rate at the 3rd day after subcutaneous injection (Number of deaths/Number of animals used) ([1]; 500 mg/kg s.c., hydrochloride): 0/6; appearance of hyperactivity / clonic convulsion ([1]; 500 mg/kg s.c., hydrochloride): ±; Number of showing anti-catalepty activity/Number of total animal ([2]; 250 mg/kg s.c.): 3/6
NC1C2CCC3C(COC13)C2 (stereo not drawn) [Compound No. 44-4, 2-Amino-4-oxa-isotwistane] | 100 µg/mL | 1 | 100 µg/mL | 0/6 | Mortality rate at the 3rd day after subcutaneous injection (Number of deaths/Number of animals used) [1, 7]: 0/6
NC[C@H]1[C@H]2CC[C@H]3[C@@H]1CO[C@H]3C2 (relative stereo) [Compound No. 67-1, exo-2-aminomethyl-5-oxa-isotwistane] | 25 µg/mL | 4 | 100 µg/mL |  | 
NC[C@@H]1[C@H]2CC[C@H]3[C@@H]1CO[C@H]3C2 (relative stereo) [Compound No. 25-3, 5-Oxa-endo-2-aminomethyl-isotwistane] | 25 µg/mL | 4 | 100 µg/mL | 0/6 | Mortality rate at the 3rd day after subcutaneous injection (Number of deaths/Number of animals used) [1, 7]: 0/6
NC12COC3CC(CCC31)C2 (stereo not drawn) [Compound No. 12-3, 5-Oxa-3-amino-isotwistane] | 50 µg/mL | 2 | 100 µg/mL | 2/6 | Mortality rate at the 3rd day after subcutaneous injection (Number of deaths/Number of animals used) ([1]; 705 mg/kg s.c., hydrochloride): 0/6; appearance of hyperactivity / clonic convulsion ([1]; 705 mg/kg s.c., hydrochloride): ±; LLS (lung lesion score) [5, 8]: 3.6; efficacy compared with amantadine [5]: comparable to that of amantadine
NCC12CSC3CC(CC31)C2 (stereo not drawn) [Compound No. 49-1, 5-thia-3-aminomethyl-brendane] | 25 µg/mL | 2 | 50 µg/mL |  | Mortality rate at the 3rd day after subcutaneous injection (Number of deaths/Number of animals used) ([1]; 250 mg/kg s.c., hydrochloride): 0/6; appearance of hyperactivity / clonic convulsion ([1]; 250 mg/kg s.c., hydrochloride): +; Number of showing anti-catalepty activity/Number of total animal ([2]; 125 mg/kg s.c.): 1/6
NC1C2CC3COC1C3C2 (stereo not drawn) [Compound No. 44-3, 2-Amino-4-oxa-brendane] | 50 µg/mL | 2 | 100 µg/mL |  | 
NCC12COC3CC(CCC31)C2 (stereo not drawn) [Compound No. 27-2, 5-Oxa-3-aminomethyl-isotwistane] | 25 µg/mL | 8 | 200 µg/mL | 1/6 | Mortality rate at the 3rd day after subcutaneous injection (Number of deaths/Number of animals used) ([1]; 1190 mg/kg s.c., hydrochloride): 0/6; appearance of hyperactivity / clonic convulsion ([1]; 1190 mg/kg s.c., hydrochloride): ±; times as safe as amantadine (by chemotherapeutic index) ([3]; compared with amantadine): 8 times
N[C@H]1[C@H]2CC[C@H]3[C@@H]1CO[C@H]3C2 (relative stereo) [Compound No. 12-9, 5-Oxa-exo-2-amino-isotwistane] | 50 µg/mL | 2 | 100 µg/mL |  | 
